Measurements as given in the NIST ThermoML archive (doi:10.1021/je060097q).

Conditions: Capillary rise

COC(C)(C)C [2-methoxy-2-methylpropane]
Conditions | surface tension liquid-gas [mN/m]
243.08 K | 24.08
248.01 K | 23.43
253.11 K | 22.84
258.13 K | 22.32
263.1 K | 21.65
268.13 K | 20.97
273.16 K | 20.52
278.11 K | 19.99
283.12 K | 19.35
288.13 K | 18.96
293.07 K | 18.53
298.08 K | 17.75
303.11 K | 17.23
308.15 K | 16.71
313.16 K | 16.25
318.11 K | 15.61
323.16 K | 15.09
328.14 K | 14.52
333.15 K | 14.02
338.16 K | 13.56
343.13 K | 13.06
348.13 K | 12.5
353.13 K | 11.94
358.15 K | 11.55
363.13 K | 10.92
368.13 K | 10.53
373.12 K | 9.946
378.12 K | 9.534
383.12 K | 8.956
388.14 K | 8.518
393.13 K | 8.006

COCOC [dimethoxymethane]
Conditions | surface tension liquid-gas [mN/m]
238.07 K | 28.12
243.12 K | 27.42
248.13 K | 26.76
253.12 K | 26.21
258.12 K | 25.63
263.08 K | 24.83
268.09 K | 24.23
273.09 K | 23.63
278.08 K | 23.11
283.07 K | 22.39
288.08 K | 21.75
293.05 K | 21.02
298.04 K | 20.36
303.16 K | 19.7
308.15 K | 18.99
313.16 K | 18.4
318.16 K | 17.67
323.15 K | 17.16
328.13 K | 16.56
333.16 K | 15.88
338.16 K | 15.32
343.15 K | 14.65
348.14 K | 14.02
353.15 K | 13.34
358.15 K | 12.83
363.15 K | 12.27
368.15 K | 11.58
373.15 K | 11.01
378.15 K | 10.36
383.13 K | 9.778
388.14 K | 9.175
